Assay results: ChEMBL document CHEMBL1129084, “Structure-activity relationships for macrocyclic peptidomimetic inhibitors of HIV-1 protease” (Bioorg Med Chem Lett, 1996)
pKi: −log10 of the molar value. Starred links: 1 amine or outer side, 2 acyl side, 3 side chain; linkers in the order of their positions; H or OH if unused. Non-standard residues stand in square brackets, D forms with d. Residues, ends and D or L forms follow the SMILES beside them. Phe(ψ(S)CH(OH)CH2N)Pro = O=C([C@@H]1CCCN1C[C@H](O)[C@H](Cc1ccccc1)N[*:1])[*:2]; Pheψ(R-CH(OH)CH2N)Pro = O=C([C@@H]1CCCN1C[C@@H](O)[C@H](Cc1ccccc1)N[*:1])[*:2]

These molecules were tested against Human immunodeficiency virus type 1 protease (Human immunodeficiency virus 1, UniProt Q72874).

SMILES	pKi
CC[C@@H](C)[C@@H]1NC(=O)[C@@H](NC[C@@H](O)[C@@H]2Cc3ccc(cc3)OCCCCC(=O)N[C@@H](C(C)C)C(=O)N2)Cc2ccc(cc2)OCCCNC1=O	8.52
CC[C@H](C)[C@H](NC(=O)[C@@H]1CCCN1C[C@@H](O)[C@H]1Cc2ccc(cc2)OCC(=O)NCC(=O)N[C@@H](CC(N)=O)C(=O)N1)C(=O)N[C@H](C(N)=O)C(C)C	6.70
CC[C@H](C)[C@H](NC(=O)[C@@H]1CCCN1C[C@H](O)[C@H]1Cc2ccc(cc2)OCC(=O)N[C@@H](Cc2ccc(O)cc2)C(=O)N[C@@H](CC(N)=O)C(=O)N1)C(=O)N[C@H](C(N)=O)C(C)C	7.96
CC[C@H](C)[C@H](NC(=O)[C@@H]1CCCN1C[C@H](O)[C@H]1Cc2ccc(cc2)OCC(=O)NCC(=O)N[C@@H](CC(N)=O)C(=O)N1)C(=O)N[C@H](C(N)=O)C(C)C	7.96
CC[C@H](C)[C@H](NC(=O)[C@@H]1CCCN1C[C@@H](O)[C@H]1Cc2ccc(cc2)OCC(=O)N[C@@H](Cc2ccc(O)cc2)C(=O)N[C@@H](CC(N)=O)C(=O)N1)C(=O)N[C@H](C(N)=O)C(C)C	6.78
CC[C@H](C)[C@H](NC(=O)[C@@H]1CCCN1C[C@H](O)[C@@H]1CSSC[C@@H](NC(C)=O)C(=O)NCC(=O)N[C@@H](CC(N)=O)C(=O)N1)C(=O)N[C@H](C(N)=O)C(C)C	6.60
CC[C@H](C)[C@H](NC(=O)[C@@H]1CCCN1C[C@@H](O)[C@@H]1CSSC[C@@H](NC(C)=O)C(=O)NCC(=O)N[C@@H](CC(N)=O)C(=O)N1)C(=O)N[C@H](C(N)=O)C(C)C	4.44
CC[C@H](C)[C@H](NC(=O)[C@@H]1CCCN1C[C@H](O)[C@H]1Cc2ccc(cc2)OCCCCC(=O)NC(CC(N)=O)C(=O)N1)C(=O)N[C@H](C(N)=O)C(C)C (some centres not stated)	8.10
CC[C@H](C)[C@H](NC(=O)[C@@H]1CCCN1C[C@@H](O)[C@H]1Cc2ccc(cc2)OCCCCC(=O)NC(CC(N)=O)C(=O)N1)C(=O)N[C@H](C(N)=O)C(C)C (some centres not stated)	7.13
CC[C@H](C)[C@H](NC(=O)[C@@H]1CCCN1C[C@@H](O)[C@H]1Cc2ccc(cc2)OCCCC(=O)NC(CC(N)=O)C(=O)N1)C(N)=O (some centres not stated)	5.55
CC[C@H](C)[C@H](NC(=O)[C@@H]1CCCN1C[C@H](O)[C@H]1Cc2ccc(cc2)OCCCC(=O)NC(CC(N)=O)C(=O)N1)C(N)=O (some centres not stated)	6.60
CC(C)[C@@H]1NC(=O)CCCCCOc2ccc(cc2)C[C@H]([C@H](O)CN2CCCC[C@H]2C(=O)NC(C)(C)C)NC1=O	7.30
CC(C)N(C(=O)[C@@H]1CCCN1C[C@@H](O)[C@H]1Cc2ccc(cc2)OCCCC(=O)NC(CC(N)=O)C(=O)N1)C(C)C (some centres not stated)	4.51
CC(C)(C)NC(=O)[C@@H]1CCCN1C[C@H](O)[C@H]1Cc2ccc(cc2)OCCCC(=O)NC(CC(N)=O)C(=O)N1 (some centres not stated)	6.84
CC(C)(C)NC(=O)[C@@H]1CCCN1C[C@@H](O)[C@H]1Cc2ccc(cc2)OCCCC(=O)NC(CC(N)=O)C(=O)N1 (some centres not stated)	7.24
CC(C)CN(CC(=O)NC(C)(C)C)C[C@@H](O)[C@H]1Cc2ccc(cc2)OCCCC(=O)N[C@@H](CC(N)=O)C(=O)N1	6.60
CC(C)(C)NC(=O)CN(Cc1ccccc1)C[C@@H](O)[C@H]1Cc2ccc(cc2)OCCCC(=O)N[C@@H](CC(N)=O)C(=O)N1	6.36
CC(C)(C)NC(=O)CN(Cc1ccccc1)C[C@H](O)[C@H]1Cc2ccc(cc2)OCCCC(=O)N[C@@H](CC(N)=O)C(=O)N1	4.87
NC(=O)CC1NC(=O)CCCOc2ccc(cc2)C[C@H]([C@H](O)CN2CCC[C@H]2C(N)=O)NC1=O (some centres not stated)	4.80
NC(=O)CC1NC(=O)CCCOc2ccc(cc2)C[C@H]([C@@H](O)CN2CCC[C@H]2C(N)=O)NC1=O (some centres not stated)	4.44
CC(C)N(C(=O)[C@@H]1CCCN1C[C@H](O)[C@H]1Cc2ccc(cc2)OCCCC(=O)NC(CC(N)=O)C(=O)N1)C(C)C (some centres not stated)	4.07
CC(C)CN(CC(=O)NC(C)(C)C)C[C@H](O)[C@H]1Cc2ccc(cc2)OCCCC(=O)N[C@@H](CC(N)=O)C(=O)N1	6.42
CC(C)[C@@H]1NC(=O)CCCCOc2ccc(cc2)C[C@H]([C@H](O)CN2CCCC[C@H]2C(=O)NC(C)(C)C)NC1=O	7.77
CC[C@H](C)[C@H](NC(=O)[C@@H]1CCCN1C[C@H](O)[C@H](Cc1ccccc1)NC(=O)[C@H](CC(N)=O)NC(=O)[C@H](CC(C)C)NC(C)=O)C(=O)N[C@H](C(N)=O)C(C)C (Ac-LN[Phe(ψ(S)CH(OH)CH2N)Pro]IV-NH2)	8.52
CC[C@H](C)[C@H](NC(=O)[C@@H]1CCCN1C[C@@H](O)[C@H](Cc1ccccc1)NC(=O)[C@H](CC(N)=O)NC(=O)[C@H](CC(C)C)NC(C)=O)C(=O)N[C@H](C(N)=O)C(C)C (Ac-LN[Pheψ(R-CH(OH)CH2N)Pro]IV-NH2)	7.74
CC[C@H](C)[C@H](NC(=O)[C@@H]1CCCN1CC(O)[C@H]1Cc2ccc(cc2)OCC(=O)N[C@H](CCC(N)=O)C(=O)N[C@@H](CC(N)=O)C(=O)N1)C(=O)N[C@H](C(N)=O)C(C)C (mixture of isomers)	8.40
CC(C)(C)NC(=O)[C@H](Cc1ccccc1)NCC(O)[C@@H]1Cc2ccc(cc2)OCCCC(=O)NC(CC(N)=O)C(=O)N1 (mixture of isomers)	4.99
